From patent publication US20250230147A1, “LACTAMS AS CBL-B INHIBITORS” (Genentech, Inc., priority 2021, published 2025) come the findings set out here.

Where a name gives a salt, the structure may show the parent alone.

In one assay the target is Cbl-b (Homo sapiens (Human), UniProt Q13191). The experiment in a line: Cbl-b LCK Ub TR-FRET assay (Cbl-b Lck HTRF). In kind it is biochemical. As to the method:
Compounds were 3-fold serially diluted in DMSO in a 384-well polypropylene plate (#P-05525-BC; Labcyte) to generate a source plate with 10 concentrations of each compound, top concentration=2 mM. 80 nL of DMSO or compounds were transferred to each well of a black 384-well ProxiPlate (#6008260; PerkinElmer) using a Labcyte Echo. 1×assay buffer (50 mM HEPES pH7.0, 100 mM NaCl, 0.01% BSA, 0.01% Triton-X100, 1 mM DTT), 2×enzyme solution (16 nM Biotin-Cbl-b or 12 nM Biotin-c-Cbl in 1× assay buffer), 2×kinase mixture (120 nM His-LCK, 1 mM ATP, 10 mM MgCl2 in assay buffer) and 2.33×detection mixture (4.66×solution 1: 163 nM Anti-HA-D2 antibody (#610HADAB; PerkinElmer), 27.96 nM Streptavidin-EU (#AD0062; PerkinElmer), 1.398 mM EDTA in 1×assay buffer+4.66×solution 2: 2.796 μM UBE2D2/Methylated-HA-Ubiquitin thioester adduct (BostonBiochem) in 1×assay buffer) were prepared. 4 μL of 2× enzyme solution was added to each well containing compound, briefly centrifuged to mix, and incubated for 60 min at room temperature. 4 μL of 2× kinase mixture was added, briefly centrifuged to mix, and incubated for 90 min. at room temperature. 6 μL of detection mixture was added to all wells and briefly centrifuged before incubating for 20 min at room temperature. Plates were read for TR-FRET using an Envision at excitation 340 nm, emission at 615 and 665 nm, 4 flashes per well. IC50 was generated using no LCK as the low control and DMSO as the high control.
Cbl-b Lck HTRF data in Table 7 is measured according to Example 76 herein; C-cbl Lck HTRF data is measured according to Example 76 herein.

A further assay deals with c-Cbl (Homo sapiens (Human), UniProt P22681). The experiment in a line: C-Cbl LCK Ub TR-FRET assay (c-cbl Lck HTRF). The class given is biochemical. The conditions noted are these: for (fold-selectivity): C-cbl Lck HTRF IC50 relative to Cbl-b Lck HTRF IC50. The protocol:
6 μL of detection mixture was added to all wells and briefly centrifuged before incubating for 20 min at room temperature. […] IC50 was generated using no LCK as the low control and DMSO as the high control.

Chain of Cbl-b (Q13191 40-426): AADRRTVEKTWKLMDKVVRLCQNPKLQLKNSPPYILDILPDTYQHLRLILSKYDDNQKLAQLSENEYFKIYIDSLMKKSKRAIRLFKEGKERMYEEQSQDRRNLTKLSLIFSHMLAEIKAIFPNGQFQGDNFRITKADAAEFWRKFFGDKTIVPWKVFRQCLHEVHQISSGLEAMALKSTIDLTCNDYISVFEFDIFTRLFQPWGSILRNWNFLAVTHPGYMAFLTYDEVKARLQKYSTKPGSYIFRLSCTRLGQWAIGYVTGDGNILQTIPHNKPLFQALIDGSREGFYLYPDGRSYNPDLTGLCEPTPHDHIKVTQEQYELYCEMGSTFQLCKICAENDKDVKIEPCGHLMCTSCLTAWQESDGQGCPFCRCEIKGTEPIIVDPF
Chain of c-Cbl (P22681 47-435): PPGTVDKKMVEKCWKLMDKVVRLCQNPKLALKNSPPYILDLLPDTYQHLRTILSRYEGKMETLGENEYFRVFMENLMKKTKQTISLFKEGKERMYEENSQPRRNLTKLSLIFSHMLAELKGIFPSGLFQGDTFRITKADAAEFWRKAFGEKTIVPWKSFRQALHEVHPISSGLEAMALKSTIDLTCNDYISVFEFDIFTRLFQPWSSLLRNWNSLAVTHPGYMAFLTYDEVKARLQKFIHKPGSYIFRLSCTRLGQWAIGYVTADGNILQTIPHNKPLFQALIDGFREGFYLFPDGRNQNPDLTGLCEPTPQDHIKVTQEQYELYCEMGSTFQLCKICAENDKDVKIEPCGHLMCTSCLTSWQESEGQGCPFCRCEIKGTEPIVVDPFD

As for `CC(C)[C@H]1CN(Cc2cc3c(c(C(F)(F)F)c2)CN(c2cccc(C4([C@@H](F)c5nncn5C)COC4)c2)C3=O)CCN1` [Compound 90, 2-(3-(3((R)-fluoro(4-methyl-4H-1,2,4-triazol-3-yl)methyl)oxetan-3-yl)phenyl)-6-(((S)-3-isopropylpiperazin-1-yl)methyl)-4-(trifluoromethyl)isoindolin-1-one], the IC50 came to 42 nM against Cbl-b and 58 nM at c-Cbl. The “(fold-selectivity)” value on c-Cbl stood at 1.4x.

In turn, `Cn1cc(-c2cc(C3(Cc4nncn4C)CCC3)cc(N3Cc4c(cc(CNC5(C)CCC5)cc4C(F)(F)F)C3=O)n2)cn1` [Compound 327, 2-(6-(1-methyl-1H-pyrazol-4-yl)-4-(1-((4-methyl-4H-1,2,4-triazol-3-yl)methyl)cyclobutyl)pyridin-2-yl)-6-(((1-methylcyclobutyl)amino)methyl)-4-(trifluoromethyl)isoindolin-1-one] returned an IC50 at Cbl-b of 12 nM. At c-Cbl, half-maximal inhibition (IC50) was put at 12 nM and the “(fold-selectivity)” value is on record as “(1.0x)”.

On Cbl-b, `Cn1cnnc1[C@@H](F)C1(c2cccc(N3Cc4c(cc(CN)cc4C(F)(F)F)C3=O)c2)COC1` [Compound 69, (S)-6-(aminomethyl)-2-(3-(3-(fluoro(4-methyl-4H-1,2,4-triazol-3-yl)methyl)oxetan-3-yl)phenyl)-4-(trifluoromethyl)isoindolin-1-one] yielded an IC50 of 210 nM. For the same compound, on c-Cbl, the IC50 amounted to 340 nM and the “(fold-selectivity)” value is recorded as 1.6x.

With `Cn1cnnc1[C@H](F)C1(c2cccc(N3Cc4c(cc(CNC5(C)CCC5)cc4C(F)(F)F)C3=O)c2)COC1` [Compound 230, (R)-2-(3-(3-(fluoro(4-methyl-4H-1,2,4-triazol-3-yl)methyl)oxetan-3-yl)phenyl)-6-(((1-methylcyclobutyl)amino)methyl)-4-(trifluoromethyl)isoindolin-1-one], the IC50 against Cbl-b turned out to be 13 nM; at c-Cbl it was 11 nM. Moreover, the “(fold-selectivity)” value on c-Cbl was “(0.84x)”.

At Cbl-b, `Cn1cnnc1[C@H](F)C1(c2cccc(N3Cc4c(Cl)cccc4C3=O)c2)COC1` [Compound 204, (R)-4-chloro-2-(3-(3-(fluoro(4-methyl-4H-1,2,4-triazol-3-yl)methyl)oxetan-3-yl)phenyl)isoindolin-1-one] gave an IC50 of 210 nM. In addition, on c-Cbl, 660 nM corresponded to half-maximal inhibition (IC50) and the “(fold-selectivity)” value was 3.1x.

On to `Cn1cnnc1CC1(c2cc(NC34CCC(C3)C4)nc(N3Cc4c(cccc4C(F)(F)F)C3=O)c2)COC1` [Compound 493, 2-(6-(bicyclo[2.1.1]hexan-1-ylamino)-4-(3-((4-methyl-4H-1,2,4-triazol-3-yl)methyl)oxetan-3-yl)pyridin-2-yl)-4-(trifluoromethyl)isoindolin-1-one], for which the IC50 on Cbl-b amounted to 630 nM; on c-Cbl, 4500 nM. On c-Cbl, the “(fold-selectivity)” value was “(6.9x)”.

For `COCCOCCNc1cc(C2(Cc3nncn3C)CCC2)cc(N2Cc3c(cc(CNC4(C)CCC4)cc3C(F)(F)F)C2=O)n1` [Compound 336, 2-(6-((2-(2-methoxyethoxy)ethyl)amino)-4-(1-((4-methyl-4H-1,2,4-triazol-3-yl)methyl)cyclobutyl)pyridin-2-yl)-6-(((1-methylcyclobutyl)amino)methyl)-4-(trifluoromethyl)isoindolin-1-one], the IC50 against Cbl-b was 33 nM. Further, on c-Cbl, the IC50 came out at 23 nM and the “(fold-selectivity)” value is listed as “(0.70x)”.

`Cn1cnnc1C[C@]1(c2cccc(N3Cc4c(cc(CNC5(C)CCC5)cc4C(F)(F)F)C3=O)c2)C[C@H](C#N)C1` [Compound 467, (1r,3r)-3-((4-methyl-4H-1,2,4-triazol-3-yl)methyl)-3-(3-(6-(((1-methylcyclobutyl)amino)methyl)-1-oxo-4-(trifluoromethyl)isoindolin-2-yl)phenyl)cyclobutanecarbonitrile]: the IC50 on Cbl-b turned out to be 12 nM. Besides, on c-Cbl, the IC50 amounted to 11 nM and the “(fold-selectivity)” value is “(0.89x)”.

In the case of `Cn1cnnc1CC1(c2cccc(N3Cc4c(cc(CNC5CC6(COC6)C5)cc4C(F)(F)F)C3=O)c2)CC(F)(F)C1` [Compound 366, 6-((2-oxaspiro[3.3]heptan-6-ylamino)methyl)-2-(3-(3,3-difluoro-1-((4-methyl-4H-1,2,4-triazol-3-yl)methyl)cyclobutyl)phenyl)-4-(trifluoromethyl)isoindolin-1-one], it took 26 nM to reach half-maximal inhibition at Cbl-b (IC50). For the same compound, at c-Cbl, half-maximal inhibition (IC50) required 27 nM and the “(fold-selectivity)” value was “(1.0x)”.

On Cbl-b, `Cn1cnnc1[C@@H](F)C1(c2cccc(N3Cc4c(cc(CN5CC(O)(C6CC6)C5)cc4C(F)(F)F)C3=O)c2)COC1` [Compound 174, (S)-6-((3-cyclopropyl-3-hydroxyazetidin-1-yl)methyl)-2-(3-(3-(fluoro(4-methyl-4H-1,2,4-triazol-3-yl)methyl)oxetan-3-yl)phenyl)-4-(trifluoromethyl)isoindolin-1-one] showed an IC50 of 190 nM. For the same compound, at c-Cbl, half-maximal inhibition (IC50) was put at 440 nM and the “(fold-selectivity)” value is recorded as 2.3x.

As to `C=CC1(O)CN(Cc2cc3c(c(C(F)(F)F)c2)CN(c2cccc(C4([C@@H](F)c5nncn5C)COC4)c2)C3=O)C1` [Compound 169, (R)-2-(3-(3-(fluoro(4-methyl-4H-1,2,4-triazol-3-yl)methyl)oxetan-3-yl)phenyl)-6-((3-hydroxy-3-vinylazetidin-1-yl)methyl)-4-(trifluoromethyl)isoindolin-1-one], the values for the IC50 against Cbl-b and against c-Cbl were 44 nM and 99 nM, respectively. Also, at c-Cbl, the “(fold-selectivity)” value worked out at 2.2x.

In turn, `Cn1cnnc1C[C@]1(c2cccc(N3Cc4c(cc(CNC5(C)CCC5)cc4C(F)(F)F)C3=O)c2)C[C@@H](C#N)C1` [Compound 468, (1s,3s)-3-((4-methyl-4H-1,2,4-triazol-3-yl)methyl)-3-(3-(6-(((1 - methylcyclobutyl)amino)methyl)-1-oxo-4-(trifluoromethyl)isoindolin-2-yl)phenyl)cyclobutanecarbonitrile] displayed a concentration for half-maximal inhibition (IC50) on Cbl-b of 15 nM. Moreover, on c-Cbl, half-maximal inhibition (IC50) was put at 15 nM and the “(fold-selectivity)” value is listed as “(1.0x)”.

With `CC(=O)NCCCCNc1cc(C2(Cc3nncn3C)CCC2)cc(N2Cc3c(cc(CNC4(C)CCC4)cc3C(F)(F)F)C2=O)n1` [Compound 314, N-(4-((4-(1-((4-methyl-4H-1,2,4-triazol-3-yl)methyl)cyclobutyl)-6-(6-(((1-methylcyclobutyl)amino)methyl)-1-oxo-4-(trifluoromethyl)isoindolin-2-yl)pyridin-2-yl)amino)butyl)acetamide formate], the half-inhibitory concentration (IC50) came to 27 nM at Cbl-b and 31 nM on c-Cbl.

Take `Cn1cnnc1CC1(c2cc(OC3CCCC3)cc(N3Cc4c(cc(CNC5(C)CCC5)cc4C(F)(F)F)C3=O)c2)COC1` [Compound 479, 2-(3-(cyclopentyloxy)-5-(3-((4-methyl-4H-1,2,4-triazol-3-yl)methyl)oxetan-3-yl)phenyl)-6-(((1-methylcyclobutyl)amino)methyl)-4-(trifluoromethyl)isoindolin-1-one]: on Cbl-b, the IC50 is 180 nM. Further, at c-Cbl, the concentration for half-maximal inhibition (IC50) came to 290 nM and the “(fold-selectivity)” value is “(1.6x)”.

For `Cn1cnnc1CC1(c2cccc(N3Cc4c(cc(CNC5(C)CCCC5)cc4C(F)(F)F)C3=O)c2)CC(F)(F)C1` [Compound 344, 2-(3-(3,3-difluoro-1-((4-methyl-4H-1,2,4-triazol-3-yl)methyl)cyclobutyl)phenyl)-6-(((1-methylcyclopentyl)amino)methyl)-4-(trifluoromethyl)isoindolin-1-one formate], the IC50 against Cbl-b came out at 16 nM; on c-Cbl, 13 nM.
